Laboratory results from patent US8143315B2, “Salts of the active substance rasagiline” (priority 2006, dated 2012).
Structures can show the parent of a compound that is named as a salt. Where two headings read alike, the source gives them in different places.

How the values were obtained:
[1] = Determination of solubility; conditions: for pH of the saturated solution / solubility: one-hour storage at 37° C.; for solubility in words: general description; for solubility: HPLC
[2] = for appearance: 60° C., closed glass bottle; for appearance / agglomerates of the salt as produced: immediately after production (general description); for formation of agglomerates after long storage: above all dry storage (general description); for agglomerates after storage: storage in a closed glass bottle (general description, time not stated)
[3] = tablets, 60° C. closed glass bottle
[4] = Particle size distribution by laser diffraction; conditions: for d(0.1) ± SD / d(0.5) ± SD / d(0.9) ± SD: average of three measurement cycles, dispersant low-viscosity paraffin
[5] = for appearance / total content of chemical contaminations / water content: 40° C./75% relative humidity, open glass bottle; for appearance after storage under humid conditions: 40° C., 75% relative humidity in an open glass bottle (general description, time not stated)
[6] = Determination of hygroscopicity (storage in humidity chambers); assay type: physicochemical; conditions: storage below 93% humidity, room temperature
[7] = Granulation 1 with mannitol (55%)
[8] = Direct compression without mannitol, 4 weeks
[9] = Direct compression without mannitol, initial value
[10] = Granulation 1 with mannitol (55%), 4 weeks
[11] = Granulation 1 with mannitol (55%), initial value
[12] = Granulation 2 without mannitol, 4 weeks
[13] = Granulation 2 without mannitol, initial value

Row | Compound | pH of the saturated solution ([1]; 0.1 N HCl) | pH of the saturated solution ([1]; Demineralized water) | pH of the saturated solution ([1]; USP acetate buffer, pH 4.5) | solubility in citric acid solution [7] | solubility in citric acid solution (Granulation 2 without mannitol) | appearance ([2]; 4 weeks) | appearance ([2]; 8 weeks) | appearance ([2]; 12 weeks) | portion of decomposed active substance [3, 8] | portion of decomposed active substance [3, 9] | portion of decomposed active substance [3, 10] | portion of decomposed active substance [3, 11] | portion of decomposed active substance [3, 12] | portion of decomposed active substance [3, 13] | fraction ≦ 250 μm [4] | d(0.1) ± SD [4] | d(0.5) ± SD [4] | d(0.9) ± SD [4] | water absorption (hygroscopicity) [6] | appearance / agglomerates of the salt as produced [2] | other results
1 | C#CCN[C@@H]1CCc2ccccc21.C#CCN[C@@H]1CCc2ccccc21.O=S(=O)(O)CCS(=O)(=O)O [Rasagiline edisilate, Rasagiline Edisilate] | 1.0 | 4.4 | 4.4 | very high | very high | unchanged | unchanged | unchanged | 0.40% | 0.00% | 1.4% | 0.00% | 0.79% | 0.00% | 100.0% | 2.7 ± 0.01 μm | 12.8 ± 0.08 μm | 35.1 ± 0.36 μm | no water absorption | white crystal powder which is free of agglomerates | pH of the saturated solution ([1]; USP phosphate buffer, pH 6.8): 6.2; solubility in words [1]: dissolves very rapidly and well; formation of agglomerates after long storage [2]: does not form any agglomerates; appearance ([5]; 4 weeks): unchanged; appearance ([5]; 8 weeks): unchanged; appearance ([5]; 12 weeks): unchanged
2 | C#CCN[C@@H]1CCc2ccccc21 [Rasagiline hydrochloride] |  |  |  |  |  |  |  |  |  |  |  |  |  |  |  |  |  |  |  |  | portion of decomposed active substance ([3]; Direct compression without mannitol, 4 weeks, hydrochloride): 1.5%; portion of decomposed active substance ([3]; Granulation 1 with mannitol (55%), 4 weeks, hydrochloride): 2.4%; portion of decomposed active substance ([3]; Granulation 2 without mannitol, 4 weeks, hydrochloride): 1.9%
3 | C#CCN[C@@H]1CCc2ccccc21 [Rasagiline mesylate, rasagiline mesylate] |  |  |  | very high | very high |  |  |  | 0.46% | 0.00% | 2.6% | 0.00% | 1.3% | 0.00% | 100.0% | 13.6 ± 0.05 μm | 40.5 ± 0.25 μm | 85.7 ± 0.89 μm | absorbed large amounts of water and liquefied |  | agglomerates after storage [2]: agglomerates; appearance after storage under humid conditions [5]: sticky powder which is difficult to process
4 | Rasagiline Oxalate | 1.2 | 2.7 | 3.4 |  |  | unchanged | unchanged | unchanged |  |  |  |  |  |  | 98.1% | 19.9 ± 0.02 μm | 53.0 ± 0.09 μm | 120.5 ± 0.66 μm | no water absorption | white crystal powder which is free of agglomerates | solubility ([1]; 0.1 N HCl): 29.9 mg/mL; solubility ([1]; Demineralized water): 19.7 mg/mL; solubility ([1]; USP acetate buffer, pH 4.5): 24.3 mg/mL; pH of the saturated solution ([1]; USP phosphate buffer, pH 6.8): 3.4; solubility ([1]; USP phosphate buffer, pH 6.8): 24.2 mg/mL; solubility in words [1]: much more difficult to dissolve; formation of agglomerates after long storage [2]: does not form any agglomerates
5 | rasagiline phosphate |  |  |  | high | high |  |  |  | 2.9% | 0.00% | 3.0% | 0.00% | 2.5% | 0.00% |  |  |  |  |  |  | agglomerates after storage [2]: agglomerates; appearance after storage under humid conditions [5]: sticky powder which is difficult to process; total content of chemical contaminations ([5]; 4 weeks): 0.05%; water content ([5]; 4 weeks): 0.2%; total content of chemical contaminations ([5]; 8 weeks): 0.19%; water content ([5]; 8 weeks): 0.4%; total content of chemical contaminations ([5]; t0): 0.0%; water content ([5]; t0): 0.1%
6 | rasagiline tartrate |  |  |  |  |  | unchanged | unchanged | unchanged | 2.5% | 0.00% | 3.1% | 0.00% | 2.8% | 0.00% | 97.2% | 5.0 ± 0.04 μm | 40.9 ± 0.57 μm | 161.2 ± 1.34 μm |  | undesired agglomerates | appearance ([5]; 4 weeks): unchanged; appearance ([5]; 8 weeks): unchanged; appearance ([5]; 12 weeks): unchanged
